SMILES strings stand for the structures.

A short description of data set [1]: maximum tolerated dose of clofarabine. The class given is in vivo. The note with it: species and study not stated. Here is the method:
It may be necessary to use dosages of the active ingredient outside the ranges disclosed herein in some cases, as will be apparent to those of ordinary skill in the art, but the dosage should not fall below 1.0 mg/kg/day. The maximum tolerated doses of clofarabine is approximately 80 mg/kg per day. Furthermore, it is noted that the clinician or treating physician will know how and when to interrupt, adjust, or terminate therapy in conjunction with individual patient response.

Data set [2] in a line: degradation of the drug during dissolution, lyophilization and drying of the parenteral formulation. It is filed as physicochemical. The note with it: dissolution in tertiary butanol/Water for Injection at 5° C., lyophilization at −16° C. for 48 hours, drying at 15° C. under high vacuum for 48 hours, protected from light. Here is the method: Clofarabine, 9.86 g, is wetted/partially dissolved with 600 mL of a 9:1 mixture of tertiary butanol and Water for Injection USP which is pre-cooled to 5° C. Once the drug powder is completely wetted, dissolution is completed by the addition of 600 mL of a 1:9 mixture of tertiary butanol and Water for Injection and 766 mL of a 1:1 mixture of tertiary butanol and Water for Injection which likewise is pre-cooled to 5° C. thereby making the final solution a 1:1 mixture. The dissolution is carried out under protection from light.
The solution formed above is promptly lyophilized in a Virtis INOTOP lyophilizer at −16° C. under light protectant conditions over a period of 48 hours. The resultant lyophilized product (lyophile) is then further dried at 15° C. under high vacuum for 48 hours. […] The lyophile is packaged under sterile conditions into 30 mL vials, each containing 50 mg of drug, 50 mg of mannitol and sodium hydroxide to adjust the pH to 7.7 and standard excess to allow for vial/needle/syringe loss.

On to `Nc1nc(Cl)nc2c1ncn2[C@@H]1O[C@H](CO)[C@@H](O)[C@@H]1F` [Clofarabine, 2 Chloro 9 (2 deoxy 2 fluoro β D arabinofuranosyl)adenine], for which, in data set [1], the maximum tolerated dose result was “approximately 80 mg/kg per day”. Further, the “degradation of the drug” value in data set [2] is “No detectable degradation”.

(Values after patent US7772206B2, “Methods and compositions for the treatment of autoimmune disorders using clofarabine” (Genzyme Corporation, priority 2002, dated 2010).)
